Measured values from US20170334959A1 (priority 2015, published 2017).
Entries after “also recorded” stand apart in the source; their conditions may differ. No end group written: not given here.

What was measured:
[1] = tested on: acute thermal pain (tail withdrawal latency); conditions: in vivo
human Nav1.6 = human Nav1.6 (Homo sapiens, UniProt Q9UQD0); format: cell-based
[2] = tested on: carrageenan-induced thermal hyperalgesia; parameters: species or system mice; conditions: mouse, in vivo
[3] = tested on: CFA-induced thermal hyperalgesia; parameters: species or system mice; conditions: mouse, in vivo
[4] = tested on: acute thermal pain (hot plate latency); conditions: in vivo
[5] = tested on: thermal withdrawal latency; parameters: species or system mice; conditions: mouse, in vivo
[6] = tested on: formalin-induced flinching (injury-induced pain); conditions: rat, in vivo
[7] = tested on: CFA-induced tactile allodynia; parameters: species or system mice; conditions: mouse, in vivo
human Nav1.7 = human Nav1.7 (Homo sapiens, UniProt Q15858, W1161R); format: cell-based; conditions: read-out: Nav1.7 IC50
isolated nerves = conditions: cited from earlier work
[8] = tested on: acute and inflammatory pain; conditions: in vivo; cited from earlier work

Chain of human Nav1.6 (Q9UQD0 whole entry): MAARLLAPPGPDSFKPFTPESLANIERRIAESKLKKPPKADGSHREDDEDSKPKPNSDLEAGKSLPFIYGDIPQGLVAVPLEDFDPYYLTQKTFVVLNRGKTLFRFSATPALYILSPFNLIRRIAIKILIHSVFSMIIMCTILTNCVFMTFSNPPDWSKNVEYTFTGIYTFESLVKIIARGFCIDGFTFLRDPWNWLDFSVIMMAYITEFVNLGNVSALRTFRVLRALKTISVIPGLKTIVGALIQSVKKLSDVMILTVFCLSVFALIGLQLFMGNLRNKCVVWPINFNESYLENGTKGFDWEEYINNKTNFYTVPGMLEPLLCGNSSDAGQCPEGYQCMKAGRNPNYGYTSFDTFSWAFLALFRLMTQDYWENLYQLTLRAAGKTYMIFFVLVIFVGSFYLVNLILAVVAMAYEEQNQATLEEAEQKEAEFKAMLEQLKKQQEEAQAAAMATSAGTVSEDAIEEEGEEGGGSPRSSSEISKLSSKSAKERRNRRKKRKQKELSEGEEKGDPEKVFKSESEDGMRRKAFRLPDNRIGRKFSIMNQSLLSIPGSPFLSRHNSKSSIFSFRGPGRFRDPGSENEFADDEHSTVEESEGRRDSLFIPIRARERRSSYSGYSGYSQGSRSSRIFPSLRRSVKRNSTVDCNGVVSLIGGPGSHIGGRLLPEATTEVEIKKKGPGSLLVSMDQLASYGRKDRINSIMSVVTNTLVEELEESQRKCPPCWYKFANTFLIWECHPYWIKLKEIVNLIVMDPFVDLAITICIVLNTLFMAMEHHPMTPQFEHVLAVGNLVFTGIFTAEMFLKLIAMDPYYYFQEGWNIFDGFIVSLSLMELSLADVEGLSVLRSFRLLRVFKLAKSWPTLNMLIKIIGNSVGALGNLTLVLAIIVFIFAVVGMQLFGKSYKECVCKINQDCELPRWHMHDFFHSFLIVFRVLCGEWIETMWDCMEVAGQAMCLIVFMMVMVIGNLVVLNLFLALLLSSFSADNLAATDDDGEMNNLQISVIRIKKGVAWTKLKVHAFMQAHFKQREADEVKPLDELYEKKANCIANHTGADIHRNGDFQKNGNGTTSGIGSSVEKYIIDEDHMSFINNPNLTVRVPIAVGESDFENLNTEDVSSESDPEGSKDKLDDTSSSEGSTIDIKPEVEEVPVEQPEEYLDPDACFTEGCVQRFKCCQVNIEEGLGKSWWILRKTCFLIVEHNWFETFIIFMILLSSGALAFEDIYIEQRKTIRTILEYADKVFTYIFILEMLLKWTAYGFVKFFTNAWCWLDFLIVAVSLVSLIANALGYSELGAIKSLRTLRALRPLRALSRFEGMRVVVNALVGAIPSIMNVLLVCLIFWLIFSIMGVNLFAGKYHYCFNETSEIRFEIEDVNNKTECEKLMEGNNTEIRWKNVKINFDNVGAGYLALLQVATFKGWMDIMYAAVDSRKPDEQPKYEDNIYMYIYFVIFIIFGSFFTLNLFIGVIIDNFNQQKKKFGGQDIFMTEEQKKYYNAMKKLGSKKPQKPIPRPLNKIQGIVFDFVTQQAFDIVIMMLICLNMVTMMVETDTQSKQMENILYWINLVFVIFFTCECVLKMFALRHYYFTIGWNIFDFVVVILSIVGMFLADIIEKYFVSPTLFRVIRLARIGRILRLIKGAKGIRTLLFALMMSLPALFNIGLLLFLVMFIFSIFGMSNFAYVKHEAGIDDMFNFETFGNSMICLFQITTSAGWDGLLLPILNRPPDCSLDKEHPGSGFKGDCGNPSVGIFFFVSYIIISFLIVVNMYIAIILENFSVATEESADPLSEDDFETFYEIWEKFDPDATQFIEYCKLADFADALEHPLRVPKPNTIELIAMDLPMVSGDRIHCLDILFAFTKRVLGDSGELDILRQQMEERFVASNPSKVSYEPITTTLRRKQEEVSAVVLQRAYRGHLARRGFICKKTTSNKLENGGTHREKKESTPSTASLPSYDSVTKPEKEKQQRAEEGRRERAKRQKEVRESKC

Substance	selectivity for Nav1.7 compared to recombinant Protoxin-II (human Nav1.6)	IC50 (human Nav1.7)	also measured
GPQCQKWMQTCDAERKCCEGFVCRLWCKKKLW-OH (cysteine pairing not given here) [NV1D2775]	improved selectivity		efficacy in the tail flick test [1]: significant efficacy; analgesia in the carrageenan study (thermal withdrawal latency) [2]: significant analgesia; protection from carrageenan-induced thermal hyperalgesia [2]: fully protected; efficacy in the CFA model / reversal of CFA-induced thermal hyperalgesia [3]: strong efficacy; thermal latencies in the CFA model [3]: close to the cut-off; time at which anti-hyperalgesic effect was first seen post-pump implantation [3]: ≤ 4 h; time by which thermal latency returned to the control level post pump implantation [3]: ≤ 48 h; time of maximum effect, thermal test [3]: 8 h; efficacy in the hot plate test [4]: significant efficacy; efficacy in the hot plate test [5]: strong, dose-dependent efficacy; also recorded: significant analgesia; hotplate latencies at 50 and 55° C. [5]: near cut-off; hotplate thermal latency compared to the PBS control [5]: modest yet significant increase; efficacy in the formalin test (flinches) [6]: significant efficacy; reversal of CFA-induced tactile allodynia [7]: reversed; time by which tactile threshold returned to the control level post pump implantation [7]: ≤ 48 h; time of maximum effect, tactile test [7]: 8 h
GPACQKWMQTCDRNRKCCEGFVCTLWCRKKLW-OH (cysteine pairing not given here) [NV1D3541]	improved selectivity		
GPACQKWMQTCDANRKCCEGFSCRLWCKKKLW-OH (cysteine pairing not given here) [NV1D3587]	improved selectivity		
GPQCQKWMQTCDRERKCCEGFVCTLWCRKKLW-OH (cysteine pairing not given here) [NV1D3034]			efficacy in the tail flick test [1]: significant efficacy; reversal of CFA-induced thermal hyperalgesia ([3]; sc): completely reversed; efficacy in the hot plate test [4]: significant efficacy; efficacy in the formalin test (flinches) [6]: significant efficacy
GPQCQKWMQTCDRERKCCEGFVCTLWCRKKLWGSAPAPAPAPAPGSCCNCSSKWCRDHSRCCGR [NV1D3800]		60.9 nM	
GPQCQKWMQTCDRTRKCCEGFVCTLWCRKKLW-OH (cysteine pairing not given here) [NV1D3368]	improved selectivity		reversal of CFA-induced thermal hyperalgesia ([3]; sc): fully reversed
GPSHSNTQTLAKAPEHTGAPAPAPAPAPAPAPAPAPAPQCQKWMQTCDRERKCCEGFVCTLWCRKKLW [NV1D3774]		88.6 nM	
GPYCQKWMQTCDANRKCCEGFSCRLWCKKKLW-NH2 [NV1D3586-NH2]	improved selectivity		
GPQCQKWMQTCDARRKCCEGFVCRLWCKKKLW-OH (cysteine pairing not given here) [NV1D3006]	improved selectivity		
GPQCQKWMQTCDRERKCCEGFVCTLWCRKKLW-NH-methyl [NV1D3034-NH-methyl]	improved selectivity		efficacy in the CFA model / reversal of CFA-induced thermal hyperalgesia [3]: readily reversed; Thermal MPE % ([3]; sc): 49 ± 17%
GPQCQKWMQTCDAERKCCEGFVCRLWCKKKLWGSAPAPAPAPAPAPAPAPAPAPGSCCNCSSKWCRDHSRCCGR [NV1D3259]		54.9 nM	
GPYCQKWMWTCDSERKCCEGMVCRLWCKKKLW-COOH [NV1D12, reference compound]			selectivity, ratio IC50(Nav1.6)/IC50(Nav1.7) in QPatch (human Nav1.6): about 28 fold
GPQCQKWMQTCDRERKCCEGFVCTLWCRKKLWGSAPAPAPAPAPAPAPAPAPAPGSCCNCSSKWCRDHSRCC [NV1D3797]		91.1 nM	
GPYCQKWMQTCDANRKCCEGFSCRLWCKKKLW-OH (cysteine pairing not given here) [NV1D3586]	improved selectivity		
GPQCQKWMQTCDRERKCCEGFVCTLWCRKKLWGSAPAPAPAPAPAPAPAPAPAPGSCCNCSSKWCRDHSRCCGR [NV1D3798]		94.5 nM	
GPQCQKWMQTCDRTRKCCEGFVCTLWCRKKLW-NH2 [NV1D3368-NH2]	improved selectivity		efficacy in the CFA model / reversal of CFA-induced thermal hyperalgesia [3]: readily reversed
GPQCQKWMQTCDRERKCCEGFVCTLWCRKKLWGSGGGGSAPAPAPAPAPAPAPAPAPAPGGGGSGSCCNCSSKWCRDHSRCC [NV1D3829]		122 nM	
GPQCQKWMQTCDRERKCCEGFVCTLWCRKKLW-NH2 [NV1D3034-NH2]	improved selectivity		
GPCCNCSSKWCRDHSRCCGRGSGGGGSAPAPAPAPAPAPAPAPAPAPGGGGSGSQCQKWMQTCDRERKCCEGFVCTLWCRKKLW [NV1D3830]		88.6 nM	
YCQKWMWTCDSERKCCEGMVCRLWCKKKLW-COOH [wild-type Protoxin-II]			inhibition of action potential firing in isolated nerves (isolated nerves): inability; efficacy in rodent models of acute and inflammatory pain [8]: non-efficacious
GPCCNCSSKWCRDHSRCCGSAPAPAPAPAPAPAPAPAPAPGSQCQKWMQTCDAERKCCEGFVCRLWCKKKLW [NV1D3262]		89.2 nM	
GPSCQKWMQTCDAERKCCEGFVCRLWCKKKLW-OH (cysteine pairing not given here) [NV1D2773]	improved selectivity		
GPGWCGDPGATCGKLRLYCCSGFCDSYTKTCKDKSSAGGGGSAPAPAPAPAPAPAPAPAPAPAPAPAPAPAPGGGGSQCQKWMQTCDRERKCCEGFVCTLWCRKKLW [NV1D3822]		74.2 nM	

Substance	selectivity for Nav1.7 compared to recombinant Protoxin-II (human Nav1.6)	IC50 (human Nav1.7)	also measured
GPQCQKWMQTCDAERKCCEGFSCTLWCKKKLW-OH (cysteine pairing not given here) [NV1D2974]	improved selectivity		
GPCCNCSSKWCRDHSRCCGSAPAPAPAPAPAPAPAPAPAPGSQCQKWMQTCDRERKCCEGFVCTLWCRKKLW [NV1D3795]		100 nM	
GPQCQKWMQTCDRERKCCEGFVCTLWCRKKLWGSAPAPAPAPAPGSCCNCSSKWCRDHSRCC [NV1D3799]		50.6 nM	
GPCCNCSSKWCRDHSRCCGRGSAPAPAPAPAPAPAPAPAPAPGSQCQKWMQTCDAERKCCEGFVCRLWCKKKLW [NV1D3260]		57.6 nM	
GPQCQKWMQTCDAERKCCEGFSCTLWCKKKLW-NH2 [NV1D2974-NH2]	improved selectivity		
GPCRTIGPSVCAPAPAPAPAPAPAPAPAPAPQCQKWMQTCDRERKCCEGFVCTLWCRKKLW [NV1D3832]		88.4 nM	
Ac-QCQKWMQTCDRERKCCEGFVCTLWCRKKLW-NH2 [(-GP) N-Ac-NV1D3034-NH2]	improved selectivity		
GPQCQKWMQTCDRNRKCCEGFVCTLWCRKKLW-OH (cysteine pairing not given here) [NV1D3044]	improved selectivity		
GPCCNCSSKWCRDHSRCCGRGSAPAPAPAPAPGSQCQKWMQTCDAERKCCEGFVCRLWCKKKLW [NV1D3256]		55.7 nM	
GPQCQDWMQTCDRERDCCEGFVCTLWCRKKLW-OH (cysteine pairing not given here) [NV1D3379]		31.6 nM	
GPQCQKWMQTCDRERKCCEGFVCTLWCRKKLWGGGGSAPAPAPAPAPAPAPAPAPAPAPAPAPAPAPGGGGSGWCGDPGATCGKLRLYCCSGFCDAYTKTCKDKSSA [NV1D3825]		194 nM	
GPQCQKWMQTCDAERKCCEGFVCRLWCKKKLW-NH2 [NV1D2775-NH2]	improved selectivity		
GPCCNCSSKWCRDHSRCCGSAPAPAPAPAPGSQCQKWMQTCDRERKCCEGFVCTLWCRKKLW [NV1D3796]		110 nM	
GPCCNCSSKWCRDHSRCCGRGSAPAPAPAPAPAPAPAPAPAPGSQCQKWMQTCDRERKCCEGFVCTLWCRKKLW [NV1D3793]		64.6 nM	
GPGWCGDPGATCGKLRLYCCSGFCDAYTKTCKDKSSAGGGGSAPAPAPAPAPAPAPAPAPAPAPAPAPAPAPGGGGSQCQKWMQTCDRERKCCEGFVCTLWCRKKLW [NV1D3824]		110 nM	
GPYCQKWMQTCDSERKCCEGMVCRLWCKKKLL-OH (cysteine pairing not given here) [compound 63955918]			efficacy in the tail flick test [1]: potent and prolonged analgesia; efficacy in the hot plate test [4]: potent and prolonged analgesia; efficacy in the formalin test (flinches) [6]: less flinches
GPQCQKWMQSCDRERKCCEGFVCTLWCRKKLW-OH (cysteine pairing not given here) [NV1D3359]	improved selectivity		
Ac-QCQKWMQTCDAERKCCEGFSCTLWCKKKLW-NH2 [(-GP) N-Ac-NV1D2974-NH2]	improved selectivity		
GPQCQKWMQTCDRERKCCEGFVCTLWCRKKLW-NH-butyl [NV1D3034-NH-butyl]	improved selectivity		
GPQCQKWMQTCDRERKCCQGFVCTLWCRKKLW-OH (cysteine pairing not given here) [NV1D3388]	improved selectivity		
GPRCQKWMQTCDAERKCCEGFVCRLWCKKKLW-OH (cysteine pairing not given here) [NV1D2772]	improved selectivity		
GPQCQKWMQTCDRERKCCEGFVCTLWCRKKLWGSGGGGSAPAPAPAPAPAPAPAPAPAPGGGGSGSCCNCSSKWCRDHSRCCGR [NV1D3828]		87.5 nM	
